Measurements as given in patent publication US20220257569A1, “INDOLE-OXADIAZOLE COMPOUNDS AND THEIR THERAPEUTIC USE” (THE GOVERNING COUNCIL OF THE UNIVERSITY OF TORONTO, priority 2018, published 2022).

Tested on: DATKO mice
Assay: Pre-pulse inhibition (PPI) of acoustic startle response
Assay type: in vivo
Settings: 10 mg/kg
Protocol: Adult (>P70) GluN1-knockdown (GluN1KD—F1: C571Bl/6J x 129S1/SvlmJ) and DAT-knockout (DATKO—C57Bl/6J), balanced for sex, were treated with either vehicle (1:1:18-Tween80:95% ethanol:saline) or a novel CB1 negative allosteric modulator (CB1 NAM), ABM300, at 10 mg/kg, was tested in behavioural assays, and compared to littermate controls. Locomotor, stereotypic movements and vertical activity were tested, along with anxiety/mania and sensorimotor gating behaviours. All data were analyzed with two- or three-way ANOVA, as appropriate, and corrected for multiple comparisons.
Loss of PPI is a common symptom found in SCZ and is widely accepted as an endophenotype. It is commonly considered an “interface” of psychosis and cognition. PPI deficits have been described in other psychiatric diseases; during acute mania in BD (Perry et al., 2001). PPI was measured via automated startle boxes. GluN1 KD and DATKO mice all display deficits in PPI, and this behaviour is responsive to treatment with antipsychotics.

Q: With `CCc1c(-c2nnc(Nc3ccccc3)o2)[nH]c2ccc(Cl)cc12` [ABM300, 5-(5-Chloro-3-ethyl-1H-indol-2-yl)-N-phenyl-1,3,4-oxadiazol-2-amine] as the molecule, how does the “effect on sensorimotor gating deficits, pre-pulse inhibition (in words)” value read?
A: rescues sensorimotor gating deficits
